The subject of assay [1] is Panc-1 cells. Description: Panc-1 matrigel invasion assay. The assay is classed as cell-based. As for the experimental part: FIGS. 2A-2D show the effect of cromolyn on pancreatic cancer cell invasion. Panc-1 and BxPC-3 cells were plated in Bio-coat matrigel and control chambers and cultured in serum-free culture media. After 24 hours non-invaded cells in the upper chamber were removed, and cells that invaded onto the lower surface of the membrane were counted from five adjacent fields. […] Data are expressed as the percent invasion through the matrigel matrix and membrane relative to migration through the control membrane. Means and 95% confidence intervals from three independent experiments performed in triplicate are shown. Two-tailed two-sample (unpaired) Student's t-tests were used to determine P values.
(§1) Panc-1 and BxPC-3 cells were seeded in BIOCOAT matrigel invasion chambers and in control chambers without matrigel (Becton-Dickinson, Bedford, Mass.) according to the manufacturer's protocol. Panc-1 cells were seeded with S100P (100 nM) with or without cromolyn (100 μM), and BxPC-3 cells were seeded with or without cromolyn (1-100 μM). Briefly, 2.0×10^5 cells in 300 μL top solution (serum-free media) were added to each chamber and allowed to invade matrigel for 24 hours at 37° C. in a 5% CO2 atmosphere. The non-invading cells on the upper surface of membrane were removed from the chambers with a cotton swab, and the invading cells on the lower surface of the membrane were fixed and stained using a Diff-Quick stain kit (Becton Dickinson, Bedford, Mass.). After two washes with water, the chambers were allowed to air dry. The numbers of invading cells in five adjacent microscope fields per membrane were counted at 20× magnification to obtain the average number of cells per field. Data are expressed as the percent invasion through the matrigel matrix and membrane relative to the migration through the control membrane. The assays were performed three times.

Assay [2] deals with BxPC-3 cells. Kind of assay: BxPC-3 matrigel invasion assay. The assay is classed as cell-based. Conditions: 24 hours; for cells invaded, mean: 0 μM 19.3%. As for the experimental part:
as §1, with “FIGS. 2A-2D show the effect of cromolyn on pancreatic cancer cell invasion. Panc-1 and BxPC-3 cells were plated in Bio-coat matrigel and control chambers and cultured in serum-free culture media. After 24 hours non-invaded cells in the upper chamber were removed, and cells that invaded onto the lower surface of the membrane were counted from five adjacent fields. […] Data are expressed as the percent invasion through the matrigel matrix and membrane relative to migration through the control membrane. Means and 95% confidence intervals from three independent experiments performed in triplicate are shown. Two-tailed two-sample (unpaired) Student's t-tests were used to determine P values. Panc-1 and” for “Panc-1 and”

Assay [3] has as its system MPan-96 cells. Kind of assay: MPanc-96 cell invasiveness. The assay is classed as cell-based, Human.
For assay [4], the system named is NFκB activity. Kind of assay: S100P stimulated NFκB luciferase reporter in MPanc-96 cells. The assay is classed as cell-based, Human. The following applies: S100P 100 nM, compound 1 μM, 5 hours. As for the experimental part: MPanc-96 pancreatic cancer cell lines stably expressing an NFκB luciferase reporter were examined for the effects of S100P, cromolyn and C5. Cells were plated at 5.0×10^3 cells/well, treated for 5 hours with 100 nM of S100P, with or without cromolyn and C5 (1 μM), and activity of a luciferase gene driven by the NFkB promoter was analyzed. P=0.05 C5 versus cromolyn. Two-tailed two-sample (unpaired) Student's t-tests were used to determine P values.

For assay [5], the system named is BxPC-3 cells. Description: BxPC-3 cell viability, alone or with gemcitabine. Type of assay: cell-based. Conditions: 72 hours. The protocol:
BxPC-3 cells were plated at 1.0×10^3 cells/well and treated with 0 μM, 1 μM, 10 μM, and 100 μM of cromolyn or C5 alone or in combination with gemcitabine 1 μM and cell viability was analyzed after 72 hours. Two-tailed two-sample (unpaired) Student's t-tests were used to determine P values. […] BxPC-3 cells were plated at 1.0×10^3 cells/well and treated with either 100 μM of cromolyn or 1 μM C5 alone or in combination with gemcitabine (1 μM) and cell viability was analyzed after 72 hours.

The test system of assay [6] is MPanc-96 cells. Description: MPanc-96 cell apoptosis by flow cytometry, alone or with gemcitabine. The assay is classed as cell-based, Human. The following applies: alone and in conjunction with gemcitabine 10 μM; 100 and 1000 nM; 72 hours. The protocol:
FIG. 11 compares the effects of cromolyn and C5 alone and in combination with gemcitabine on MPanc-96 cell apoptosis. MPanc-96 cells were treated with cromolyn or C5 (100 and 1000 nM) with (+) or without (−) gemcitabine (10 μM). Apoptosis was analyzed after 72 hours by flow cytometry.
(In general: A flow cytometer gives signals particle by particle.)

Assay [7] has as its system SKOV3 ovarian cells. Kind of assay: SKOV3 ovarian cell proliferation. The assay is classed as cell-based. Conditions: different concentrations; 24, 48, 72 hours. As for the experimental part: SKOV3 ovarian cells were cultured for up to three days in the presence of different concentrations of cromolyn, and cell proliferation was analyzed at 24, 48, and 72 hours. *, P<0.05.

In assay [8] the test system is PC3 prostate cells. Description: PC3 prostate cell viability with taxol. Type of assay: cell-based. The following applies: taxol 100 nM, cromolyn 10 μM, 48 hours. The protocol: PC3 prostate cells were plated and treated with taxol (100 nM) either in the presence or absence of cromolyn (10 μM) for 48 hours. Cell viability was analyzed after 48 hours. *, P<0.05.

Molecules are shown by their SMILES.

Regarding `O=C(O)c1cc(=O)c2c(OCC(O)COc3cccc4oc(C(=O)O)cc(=O)c34)cccc2o1` [cromolyn, disodium 1,3-bis[(2′-carboxylatochromon-5′-yl)oxy]-2-hydroxypropane], the basal cell invasion entry in assay [1] (Panc-1, no S100P) is given as “did not reduce”. In addition, the “cells invaded, mean” value in assay [1] (Panc-1, S100P 100 nM + cromolyn 100 μM, 24 hours) amounted to 9.4%; in assay [2] (cromolyn 10 μM), 9.3%; in assay [2] (cromolyn 100 μM), 7.7%. Moreover, in assay [1] (Panc-1, S100P 100 nM, cromolyn 100 μM, 24 hours), the “cells invaded, difference S100P versus S100P+cromolyn” value stood at 48.6%. Also, the entries for the “cells invaded, difference versus 0 μM” value in assay [2] (cromolyn 10 μM) and in assay [2] (cromolyn 100 μM) were 10.0% and 11.7%, respectively. For the same molecule, the basal cell invasiveness entry in assay [3] is “inhibited”. In assay [4], the “NFκB activity in pancreatic cancer cells in vitro” value is given as “inhibit”. Moreover, the “concentration giving the same level of cell reduction in combination with gemcitabine” value in assay [5] (BxPC-3, gemcitabine 1 μM, FIG. 10) was 100 µM. For the same molecule, the BxPC-3 cell viability entry in assay [5] (alone and in conjunction with gemcitabine 1 μM) is “inhibit”. The MPanc-96 cell viability result in assay [6] is “inhibit”. The “growth of SKOV3 cells” value in assay [7] was “reduced the growth”. In assay [8], the “cell killing effect of taxol on prostate cancer cells” value is “increased the cell killing effect of taxol”.

For the origin of these results see patent US20110195924A1, “Methods of Inhibiting the Interaction Between S100P and the Receptor for Advanced Glycation End-Products” (priority 2008, published 2011).
